For assay [1], the target named is T1, β-secretase (BACE-1) (Homo sapiens, UniProt P56817).
T1 construct: purchased Sigma–Aldrich
In words: biochemical. The conditions noted are these: reported with SD. How it is done:
β-secretase (BACE-1) Activity Detection Kit (Fluorescent) was purchased from Sigma–Aldrich and used to determine the effect of the synthesized chalcones on β-secretase activity. The assay was carried out according to the manufacturer’s protocol. The enzyme solution (0.3 units/uL, 2 μL) was reacted with the 50 μM of the substrate (7-methoxycumarin- 4-acetyl-(Asn670, Lue671)-amyloid β/A4 precursor protein 770 fragment 667–676-(2,4-dinitrophenyl))Lys-Arg-Arg amide trifluoroacetate salt and sulfated polysaccharide samples (2–5 mg/mL) in a fluorescence assay buffer in different wells. Baseline readings were measure immediately on a Hitachi F-7000 (excitation: 320 nm; emission: 405 nm) fluorescence spectrophotometer and repeated after 2 h incubation at 37 °C. […] The method was as described earlier.

Assay [2] has as its target T2, acetylcolinesterase from electric eel (Type VI) (Electrophorus electricus, UniProt O42275).
T2 construct: purified acetylcolinesterase from electric eel (Type VI); tissue Type VI; host or cells: electric eel
In words: biochemical. Particulars: reported with SD; assayed in triplicate; read-out: AChE IC50. How it is done:
The assay was performed in 96-well microtiter plates in the same condition for both chalcones and control substance. 25 µL of 100 mM sodium phosphate buffer pH 8, 25 µL of sample and 25 µL acetylcholinesterase solutions containing 0.54 U/mL were mixed in each well of the plate and allowed to incubate for 15 min at 25 °C. Subsequently, 25 µL of a solution of ATCI (15 mM, dissolved in water) and 125 µL of 3 mM DTNB (5,5’-dithio-bis-nitro benzoic acid) were added. The absorbance at 405 nm was recorded during the first 5 min of the reaction. […] Percentages (%) of AChE inhibitions of tested compounds were calculated from the absorbance values as indicated in Equation (1):% I = [(A0E − A0) − (Ac − A0C)]/(A0E − A0)(1) where I is the percent inhibition of acetylcholinesterase; A0E is the absorbance value of the control blank sample with enzyme; A0 is the absorbance value of blank sample; Ac is the absorbance value of the tested sample; A0C is the absorbance value of blank test sample.
The method was as described earlier.

The test system of assay [3] is AChE. The conditions noted are these: dataset for 2D-QSAR model, Ellman's method, galantamine as reference; cited from earlier work.
Where [4] appears, read: pIC50 = −logIC50, read-out: BACE-1 pIC50 Observed (converted).

Read-outs that look alike come from different tables or passages of the source.

T1 sequence (P56817 46-501): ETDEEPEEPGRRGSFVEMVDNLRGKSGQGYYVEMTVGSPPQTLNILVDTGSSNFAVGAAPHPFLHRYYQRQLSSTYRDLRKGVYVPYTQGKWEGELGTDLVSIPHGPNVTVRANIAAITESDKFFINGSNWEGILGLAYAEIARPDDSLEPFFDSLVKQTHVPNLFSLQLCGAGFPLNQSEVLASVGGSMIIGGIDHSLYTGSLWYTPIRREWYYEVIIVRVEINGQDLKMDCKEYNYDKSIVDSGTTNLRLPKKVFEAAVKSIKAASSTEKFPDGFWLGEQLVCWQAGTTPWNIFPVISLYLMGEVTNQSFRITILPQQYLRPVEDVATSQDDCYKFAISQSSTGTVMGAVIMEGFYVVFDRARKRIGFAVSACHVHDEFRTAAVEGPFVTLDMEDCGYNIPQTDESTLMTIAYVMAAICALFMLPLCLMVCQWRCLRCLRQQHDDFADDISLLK
T2 sequence (O42275 24-633): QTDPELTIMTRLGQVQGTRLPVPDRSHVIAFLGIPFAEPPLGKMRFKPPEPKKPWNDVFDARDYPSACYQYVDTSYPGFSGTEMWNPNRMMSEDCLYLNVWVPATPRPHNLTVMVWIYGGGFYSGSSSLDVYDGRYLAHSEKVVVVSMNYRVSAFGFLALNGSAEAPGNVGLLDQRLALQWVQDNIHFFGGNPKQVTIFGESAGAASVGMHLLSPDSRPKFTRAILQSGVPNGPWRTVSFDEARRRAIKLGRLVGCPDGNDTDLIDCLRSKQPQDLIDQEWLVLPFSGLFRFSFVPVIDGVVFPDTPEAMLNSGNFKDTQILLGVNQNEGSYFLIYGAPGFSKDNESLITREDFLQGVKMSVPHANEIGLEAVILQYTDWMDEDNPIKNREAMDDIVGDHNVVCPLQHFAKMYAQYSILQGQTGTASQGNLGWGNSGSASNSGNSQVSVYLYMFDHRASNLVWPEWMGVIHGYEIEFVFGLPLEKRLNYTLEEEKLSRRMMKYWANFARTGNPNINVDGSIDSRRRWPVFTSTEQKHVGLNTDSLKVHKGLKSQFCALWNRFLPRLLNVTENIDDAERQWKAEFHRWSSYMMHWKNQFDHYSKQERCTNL

Consider `CN(C)CCCN1c2ccccc2Sc2ccc(C(=O)/C=C/c3ccccc3)cc21` [AC1, (E)-1-(10-(3-(dimethylamino)propyl)-10H-phenothiazin-2-yl)-3-phenylprop-2-en-1-one], for which the IC50 in assay [1] (setting [4]) was 6.31 µM; in assay [1] (read-out: BACE-1 IC50), 6.34 ± 0.46 µM; in assay [2], 33.9 ± 1.45 µM.

Turning to `COc1cccc(/C=C/C(=O)c2ccc3c(c2)N(CCCN(C)C)c2ccccc2S3)c1` [AC2, (E)-1-(10-(3-(dimethylamino)propyl)-10H-phenothiazin-2-yl)-3-(3-methoxyphenyl)prop-2-en-1-one], the IC50 in assay [1] (setting [4]) is 3.02 µM; in assay [1] (read-out: BACE-1 IC50), 3 µM; in assay [2], 30.9 ± 2.1 µM.

`COc1ccc(/C=C/C(=O)c2ccc3c(c2)N(CCCN(C)C)c2ccccc2S3)cc1` [AC3, (E)-1-(10-(3-(dimethylamino)propyl)-10H-phenothiazin-2-yl)-3-(4-methoxyphenyl)prop-2-en-1-one]: the values for the IC50 in assay [1] (setting [4]), in assay [1] (read-out: BACE-1 IC50) and in assay [2] were 4.47 µM, 4.48 ± 0.4 µM and 11.5 ± 1.29 µM, respectively. In the same order, the values of `COc1cc(/C=C/C(=O)c2ccc3c(c2)N(CCCN(C)C)c2ccccc2S3)cc(OC)c1OC` [AC4, (E)-1-(10-(3-(dimethylamino)propyl)-10H-phenothiazin-2-yl)-3-(3,4,5-trimethoxyphenyl)prop-2-en-1-one] are 0.155 µM, 0.16 ± 0.03 µM and 3.63 ± 0.61 µM. In the same order, the values of `CN(C)CCCN1c2ccccc2Sc2ccc(C(=O)/C=C/c3ccc(Cl)cc3)cc21` [AC5] are 1.23 µM, 1.24 ± 0.12 µM and 60.3 ± 1.84 µM. In the same order, the values of `CN(C)CCCN1c2ccccc2Sc2ccc(C(=O)/C=C/c3ccc(Cl)cc3Cl)cc21` [AC6] are 0.501 µM, 0.5 µM and 20 ± 1.57 µM. `CN(C)CCCN1c2ccccc2Sc2ccc(C(=O)/C=C/c3c(F)cccc3Cl)cc21` [AC7]: the values for the IC50 in assay [1] (setting [4]), in assay [1] (read-out: BACE-1 IC50) and in assay [2] were 0.447 µM, 0.45 ± 0.04 µM and 40.7 ± 2.48 µM, respectively. In the same order, the values of `CN(C)CCCN1c2ccccc2Sc2ccc(C(=O)/C=C/c3ccccc3Cl)cc21` [AC8] are 2.95 µM, 2.97 ± 0.05 µM and 15.8 ± 1.08 µM. For `CN(C)CCCN1c2ccccc2Sc2ccc(C(=O)/C=C/c3ccc(F)cc3)cc21` [AC9, (E)-1-(10-(3-(dimethylamino)propyl)-10H-phenothiazin-2-yl)-3-(4-fluorophenyl)prop-2-en-1-one], in that order: 3.72 µM, 3.72 ± 0.21 µM and 25.1 ± 0.83 µM. In the same order, the values of `CN(C)CCCN1c2ccccc2Sc2ccc(C(=O)/C=C/c3cccc(Br)c3)cc21` [AC10] are 2 µM, 1.99 ± 0.21 µM and 24.6 ± 1.09 µM. `CN(C)CCCN1c2ccccc2Sc2ccc(C(=O)/C=C/c3ccccc3C(F)(F)F)cc21` [AC11]: the IC50 in assay [1] (setting [4]) is 0.398 µM; in assay [1] (read-out: BACE-1 IC50), 0.4 µM; in assay [2], 186 ± 4.52 µM. In the same order, the values of `CN(C)CCCN1c2ccccc2Sc2ccc(C(=O)/C=C/c3ccc(N(C)C)cc3)cc21` [AC12] are 0.347 µM, 0.35 ± 0.04 µM and 1.1 ± 0.24 µM.

On to `CN(C)CCCN1c2ccccc2Sc2ccc(C(=O)/C=C/c3ccc(OCc4ccccc4)cc3)cc21` [AC13], for which the IC50 in assay [1] (setting [4]) was 3.02 µM; in assay [1] (read-out: BACE-1 IC50) it was 3.03 ± 0.21 µM; in assay [2] it was 11.8 ± 0.63 µM.

As to `COc1ccc2c(c1)[nH]c1cccc(CNC(C)C)c12` [CHEMBL3127216], the “pIC50 (AChE dataset, Table S4)” value in assay [3] was 4.84.

In the case of `CCN(CC)Cc1cccc2[nH]c3cc(OC)ccc3c12` [CHEMBL3127217], the “pIC50 (AChE dataset, Table S4)” value in assay [3] is 4.99. Turning to `CC(C)NCc1cccc2[nH]c3cc(O)ccc3c12` [CHEMBL3127219], the “pIC50 (AChE dataset, Table S4)” value in assay [3] is on record as 4.92. `COc1cc(/C=C/c2ccc(OCCCCCCN(C)Cc3ccccc3)cc2)cc(OC)c1` [CHEMBL3132866]: the “pIC50 (AChE dataset, Table S4)” value in assay [3] was 4.98. In the case of `CCCN(CCC)CCCCCCOc1ccc(/C=C/c2cc(OC)cc(OC)c2)cc1` [CHEMBL3133243], the “pIC50 (AChE dataset, Table S4)” value in assay [3] was 4.97. Turning to `COc1cc(/C=C/c2ccc(OCCCCCCN3CCCCC3)cc2)cc(OC)c1` [CHEMBL3133245], the “pIC50 (AChE dataset, Table S4)” value in assay [3] was 5.36.

On to `COc1cc(/C=C/c2ccc(OCCCCCCN3CCCCC3C)cc2)cc(OC)c1` (stereo not shown) [CHEMBL3133246], for which the “pIC50 (AChE dataset, Table S4)” value in assay [3] is on record as 5.45. As for `COc1cc(/C=C/c2ccc(OCCCCCCN3CCC(O)CC3)cc2)cc(OC)c1` [CHEMBL3133247], the “pIC50 (AChE dataset, Table S4)” value in assay [3] is 4.81. Turning to `COc1cc(/C=C/c2ccc(OCCCCCCN3CCOCC3)cc2)cc(OC)c1` [CHEMBL3133248], the “pIC50 (AChE dataset, Table S4)” value in assay [3] is on record as 4.66. On to `COc1cc(/C=C/c2ccc(OCCCN(C)Cc3ccccc3)cc2)cc(OC)c1` [CHEMBL3133250], for which, in assay [3], the “pIC50 (AChE dataset, Table S4)” value is 4.29. As to `COc1ccccc1NC(=O)Nc1nc(-c2cc3ccccc3o2)cs1` [CHEMBL3617362], the “pIC50 (AChE dataset, Table S4)” value in assay [3] is listed as 4.22. Turning to `O=C(Nc1nc(-c2cc3ccccc3o2)cs1)Nc1ccccc1[N+](=O)[O-]` [CHEMBL3617367], the “pIC50 (AChE dataset, Table S4)” value in assay [3] was 4.38.

As to `O=C(Nc1nc(-c2cc3ccccc3o2)cs1)Nc1ccccc1F` [CHEMBL3617370], the “pIC50 (AChE dataset, Table S4)” value in assay [3] is 4.51. Turning to `O=C(Nc1ccc(F)cc1)Nc1nc(-c2cc3ccccc3o2)cs1` [CHEMBL3617372], in assay [3], the “pIC50 (AChE dataset, Table S4)” value is given as 4.26.

Consider `O=C(Nc1ccc(Cl)c(Cl)c1)Nc1nc(-c2cc3ccccc3o2)cs1` [CHEMBL3617375], for which the “pIC50 (AChE dataset, Table S4)” value in assay [3] is reported as 4.28. On to `COc1ccc(NC(=O)Nc2nc(-c3cc4cc(Br)ccc4o3)cs2)cc1` [CHEMBL3617380], for which the “pIC50 (AChE dataset, Table S4)” value in assay [3] is recorded as 4.49.

For `Cc1ccc(NC(=O)Nc2nc(-c3cc4cc(Br)ccc4o3)cs2)cc1` [CHEMBL3617381], the “pIC50 (AChE dataset, Table S4)” value in assay [3] is recorded as 4.49. In the case of `O=C(Nc1ccccc1)Nc1nc(-c2cc3cc(Br)ccc3o2)cs1` [CHEMBL3617382], the “pIC50 (AChE dataset, Table S4)” value in assay [3] is reported as 4.63. On to `O=C(Nc1ccc(F)cc1)Nc1nc(-c2cc3cc(Br)ccc3o2)cs1` [CHEMBL3617388], for which the “pIC50 (AChE dataset, Table S4)” value in assay [3] was 4.45.

As to `COc1ccc(NC(=O)Nc2nc(-c3cc4cc([N+](=O)[O-])ccc4o3)cs2)cc1` [CHEMBL3617393], the “pIC50 (AChE dataset, Table S4)” value in assay [3] is on record as 4.47. On to `O=C(Nc1ccc(F)cc1)Nc1nc(-c2cc3cc([N+](=O)[O-])ccc3o2)cs1` [CHEMBL3617396], for which, in assay [3], the “pIC50 (AChE dataset, Table S4)” value is given as 4.39. Regarding `O=C(Nc1ccc(Cl)cc1)Nc1nc(-c2cc3cc([N+](=O)[O-])ccc3o2)cs1` [CHEMBL3617397], in assay [3], the “pIC50 (AChE dataset, Table S4)” value is reported as 4.52.

(Values after publication PMC7504348 (Molecules, 2020).)
